# Measurements published in patent US9006394B2, “Peptide-presenting surfaces for long-term culture of pluripotent cells” (Wisconsin Alumni Research Foundation, priority 2008, dated 2015).
# Ends that are not written are not given here.
# How the values were obtained:
# [1] = tested on: hES cells (H9 and H13) and vector-free iPS cells (DF19-9); assay: Cell growth over two passages (Cell Counting Kit-8); type: cell-based, human
# Method: hESCs (H9) were cultured on Matrigel, vitronectin, polylysine, […] (SEQ ID NO: 1), or KGRGDS (SEQ ID NO: 5) over two passages in mTeSR media supplemented with 5 μm ROCK inhibitor. Cell counts were calculated at each time point using Cell Counting Kit-8 (Dojindo Molecular Technologies, Inc., Rockville, Md.).
# hESCs (H1 and H9) = assay: hESC culture for 6 days on peptide-AT SAM arrays, Oct-4 and SSEA-4 staining; type: cell-based, human
# Method: hESCs were passaged to SAMs of peptide-AT conjugates on gold in mTeSR™1 optionally supplemented with 10 ng/ml heregulin-β1 (Peprotech; Rocky Hill, N.J.) and 5 μM Y-27632 (Calbiochem; San Diego, Calif.). […] Some surfaces presented peptide-AT conjugates of only vitronectin GBP (SEQ ID NO:1), fibronectin GBP (SEQ ID NO:2) or bone sialoprotein GBP (SEQ ID NO:3) Alternatively, some surfaces presented peptide-AT conjugates of only the integrin-binding peptide (SEQ ID NO:5), another bioactive peptide derived from fibronectin (SEQ ID NO:6), the FGF receptor binding peptide (SEQ ID NO:4), the laminin-derived bioactive peptide (SEQ ID NO:7), […] (SEQ ID NO: 8) or […] (SEQ ID NO: 9). Furthermore, some surfaces presented separate peptide-AT conjugates of the integrin-binding peptide (SEQ ID NO:5) and FGF receptor binding peptide (SEQ ID NO:4); the integrin-binding peptide (SEQ ID NO:5) and vitronectin GBP (SEQ ID NO:1); the integrin-binding peptide (SEQ ID NO:5) and bioactive peptide derived from fibronectin (SEQ ID NO:6); and the vitronectin GBP (SEQ ID NO:1) and […] (SEQ ID NO: 9). The density of the peptides on the surface varied from 0.5% to 25% (see, FIG. 1).
# Images were collected with a Hamamatsu (Bridgewater, N.J.) Digital Camera mounted onto an Olympus IX81 Microscope. […]
sequence,measurement,setting,value
GKKQRFRHRNRKG (not fully specified (C-terminus); listed as Homo sapiens),plating efficiency after 24 hours,[1]; 24 hours,equivalent
same,cell numbers after each passage,"[1]; two passages, mTeSR with ROCK inhibitor",Increased cell numbers
same,"cell attachment and self-renewal, presence of Oct-4 and SSEA-4 after 6 days",hESCs (H1 and H9),best supported both cell attachment and self-renewal
same,karyotype by standard G banding,H9 hESCs,karyotypically normal
